doi:10.1101/2024.12.25.630315 (bioRxiv, 2024)

Experiments:
[1] = tested on: HT1376 tumors; assay: EV therapy response and PET target engagement, HT1376 xenografts; format: in vivo, mouse
Method: Mice with tumor volume of ~100-150 mm^3 were injected with ~[…] (7.4 MBq) of [^68Ga]AJ647 in […] of 5% ethanol in saline intravenously and anesthetized under 2.5% isoflurane. PET-CT images were acquired at 60 minutes after radiotracer injection at 5 min/bed in an ARGUS small-animal PET/CT scanner (Sedecal, Madrid, Spain) as described (n=3 unless otherwise noted). PET-MR images were acquired on a simultaneous 7T Bruker PET-MR scanner. Dynamic imaging was conducted to evaluate pharmacokinetics of [^68Ga]AJ647. [^68Ga]AJ647 was injected (with help of catheter) after mice was anesthetized under 2.5% isoflurane on the equipment bed. All PET data were reconstructed using the two-dimensional ordered subsets-expectation maximization algorithm (2D-OSEM) and corrected for radioactive decay and dead time. The SUV values were calculated by finding percent of injected activity (%IA) based on a calibration factor obtained from a known radioactive quantity, then normalizing by mice weight. […] For change in accessible Nectin-4 levels following EV treatment, ΔSUV was calculated by subtracting baseline (pre-treatment) uptake from post-therapy uptake of [^68Ga]AJ647. Target engagement was quantified by normalizing this change by initial SUV in same subject controls. […] Mice body weight and tumor measurements were recorded until saline group tumors reached 1500 mm^3 average size. […] Briefly, the percentage change in volume relative to baseline: % tumor volume change (ΔVolt) = 100% × ((Vt -[…]). BestResponse was the lowest ΔVolt for t ≥ 10 days. For each time t, the average ΔVolt from t = 0 to t was calculated, with the BestAvgResponse defined as the lowest average ΔVolt for t ≥ 10 days. Modified response criteria (mRECIST), adapted from RECIST21, were as follows: mCR (BestResponse < -95%, BestAvgResponse < -40%), mPR (BestResponse < -50%, BestAvgResponse < -20%), mSD (BestResponse < 35%, BestAvgResponse < 30%), and mPD (all others). We defined mPD as non-responders (0 response) and stable disease or better as responders (1 response). […]

[2] = biological target: T1, Nectin-4 (Homo sapiens, UniProt Q96NY8); assay: [^68Ga]AJ647 binding to SCaBER cells with and without EV; conditions: SCaBER cells (Nectin-4 positive); EV 60 nM for 15 min; P<0.0001
T1 construct: host or cells: HT1376, SCaBER, T24, RT112, UC9, UC14 urothelial carcinoma cells; HT1376 xenografts in NSG mice
T1 sequence (Q96NY8 32-510): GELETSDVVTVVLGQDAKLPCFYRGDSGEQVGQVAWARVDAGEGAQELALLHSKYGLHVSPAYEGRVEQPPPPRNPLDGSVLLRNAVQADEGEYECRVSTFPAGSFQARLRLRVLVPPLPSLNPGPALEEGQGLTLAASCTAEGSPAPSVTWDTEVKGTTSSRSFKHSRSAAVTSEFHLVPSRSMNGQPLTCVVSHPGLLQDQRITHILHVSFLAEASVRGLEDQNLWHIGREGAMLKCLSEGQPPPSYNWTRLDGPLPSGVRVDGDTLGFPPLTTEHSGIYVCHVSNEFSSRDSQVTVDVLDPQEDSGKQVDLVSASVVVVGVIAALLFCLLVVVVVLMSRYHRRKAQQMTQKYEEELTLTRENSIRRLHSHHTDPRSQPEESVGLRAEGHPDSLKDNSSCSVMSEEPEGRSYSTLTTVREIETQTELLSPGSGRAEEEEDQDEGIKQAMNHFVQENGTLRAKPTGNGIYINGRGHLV

[3] = biological target: T1, Nectin-4; assay: In vivo Nectin-4 engagement by EV, HT1376 tumors (ex vivo biodistribution of [^68Ga]AJ647); design: species or system mouse; conditions: NSG mice, single i.v. dose of EV (15 mg/kg in text, 20 mpk in legend/methods) 24 hours before tracer, ex vivo biodistribution 60 min, n=5, P < 0.0001
Method: To validate imaging studies, ex vivo biodistribution studies were conducted in mice with tumors of size 100–200 mm^3. Mice received ~50 μCi (1.85 MBq) of [^68Ga]AJ647 in […] of 5% ethanol in saline intravenously and mice were sacrificed at 5–180 min after [^68Ga]AJ647 injection for pharmacokinetic evaluation (n=4 per timepoint). In all other studies, 60 min time-point was chosen. Selected tissues (Blood, Skin, Muscle, Bone, Salivary glands, Tumor, Lungs, Heart, Liver, Pancreas, Spleen, Kidneys, Bladder, Testicles) were collected, weighed, counted, and their %IA/g values calculated as described previously (PMID: 37793856). For EV pharmacodynamics studies, fewer organs were harvested to accommodate more number of mice.
Male NSG mice were implanted subcutaneously with HT1376 and SCaBER cells (4 million each) on the right and left rostral end, respectively. On day 25 after cell inoculation (average tumor volume=200±35 mm^3), mice were randomized and treated with a single dose of either saline or 20 mpk EV ADC injected intravenously (volume not exceeding 300 μL) or with 200 μL saline (n=7/group). 24 hours following the EV dose, [^68Ga]AJ647 PET scans (n=2/group) were acquired and ex vivo biodistribution (n=5/group) was performed using the protocols mentioned above.

Substance: enfortumab vedotin [EV]
- share of mice with less than 50% target engagement ([1]; EV 6 and 15 mg/kg groups, day 6 PET): 50%
- responders (mRECIST, stable disease or better) ([1]; EV-treated mice with higher target engagement, irrespective of dose): 7/8
- responders (mRECIST, stable disease or better) ([1]; EV-treated mice with less than 30% target engagement): 0/12
- effect of EV on [^68Ga]AJ647 binding [2]: significantly reduced
- reduction in [^68Ga]AJ647 uptake in EV-treated tumors compared to controls [3]: 84%
